{
  "source": "PubChem BioAssay AID651880",
  "about": "(NMMLSC, 2012)",
  "target": "Botulinum neurotoxin type F light chain protease (Clostridium botulinum)",
  "experiment": "Botulinum neurotoxin type F light chain protease inhibitors, multiplex microsphere cleavage, dose response (AID 651880)",
  "conditions": "multiplex microsphere flow cytometry protease cleavage assay",
  "note": "Active and inactive are the calls of the source. No rule for the calls is given here.",
  "data": [
    {"smiles": "CSc1ccc(C2=NN(c3ccc([N+](=O)[O-])cc3)C(c3ccccc3)C2)cc1", "note": "(centres undefined)", "values": [
      {"measurement": "EC50", "value": 0.05, "unit": "µM"}
    ]},
    {"smiles": "CSc1ccc(C2=NN(c3ccc(S(N)(=O)=O)cc3)C(c3ccccc3)C2)cc1", "note": "(centres undefined)", "values": [
      {"measurement": "EC50", "value": "> 20 µM (inactive)"}
    ]},
    {"smiles": "COc1ccc(N2N=C(c3ccncc3)CC2c2ccccc2)cc1", "note": "(centres undefined)", "values": [
      {"measurement": "EC50", "value": "> 20 µM (inactive)"}
    ]},
    {"smiles": "c1ccc(C2CC(c3ccccn3)=NN2c2ccccc2)cc1", "note": "(centres undefined)", "values": [
      {"measurement": "EC50", "value": "> 20 µM (inactive)"}
    ]},
    {"smiles": "COc1ccc(N2N=C(c3cccnc3)CC2c2ccccc2)cc1", "note": "(centres undefined)", "values": [
      {"measurement": "EC50", "value": "> 20 µM (inactive)"}
    ]},
    {"smiles": "CS(=O)(=O)c1ccc(N2N=C(c3ccncc3)CC2c2ccccc2)cc1", "note": "(centres undefined)", "values": [
      {"measurement": "EC50", "value": "> 20 µM (inactive)"}
    ]},
    {"smiles": "O=C(c1ccc(N2N=C(c3ccccc3)CC2c2ccccc2)cc1)N1CCCCC1", "note": "(centres undefined)", "values": [
      {"measurement": "EC50", "value": "> 20 µM (inactive)"}
    ]},
    {"smiles": "NS(=O)(=O)c1ccc(N2N=C(c3cccnc3)CC2c2ccccc2)cc1", "note": "(centres undefined)", "values": [
      {"measurement": "EC50", "value": "> 20 µM (inactive)"}
    ]},
    {"smiles": "CSc1ccc(C2=NN(c3ccccc3)C(c3ccccc3)C2)cc1", "note": "(centres undefined)", "values": [
      {"measurement": "EC50", "value": "> 20 µM (inactive)"}
    ]},
    {"smiles": "CSc1ccc(C2=NN(c3ccc(S(C)(=O)=O)cc3)C(c3ccccc3)C2)cc1", "note": "(centres undefined)", "values": [
      {"measurement": "EC50", "value": "> 20 µM (inactive)"}
    ]},
    {"smiles": "c1ccc(-c2cc(-c3ccccc3)n(-c3ccccc3)n2)cc1", "values": [
      {"measurement": "EC50", "value": "> 20 µM (inactive)"}
    ]},
    {"smiles": "COc1ccc(N2N=C(c3ccc(SC)cc3)CC2c2ccccc2)cc1", "note": "(centres undefined)", "values": [
      {"measurement": "EC50", "value": "> 20 µM (inactive)"}
    ]},
    {"smiles": "CSc1ccc(C2=NN(c3ccc(C(=O)N4CCCCC4)cc3)C(c3ccccc3)C2)cc1", "note": "(centres undefined)", "values": [
      {"measurement": "EC50", "value": "> 20 µM (inactive)"}
    ]},
    {"smiles": "CNC(=O)c1ccc(N2N=C(c3ccc(SC)cc3)CC2c2ccccc2)cc1", "note": "(centres undefined)", "values": [
      {"measurement": "EC50", "value": "> 20 µM (inactive)"}
    ]},
    {"smiles": "c1ccc(C2CC(c3ccncc3)=NN2c2ccccc2)cc1", "note": "(centres undefined)", "values": [
      {"measurement": "EC50", "value": "> 20 µM (inactive)"}
    ]},
    {"smiles": "CS(=O)(=O)c1ccc(N2N=C(c3cccnc3)CC2c2ccccc2)cc1", "note": "(centres undefined)", "values": [
      {"measurement": "EC50", "value": "> 20 µM (inactive)"}
    ]},
    {"smiles": "NS(=O)(=O)c1ccc(N2N=C(c3ccncc3)CC2c2ccccc2)cc1", "note": "(centres undefined)", "values": [
      {"measurement": "EC50", "value": "> 20 µM (inactive)"}
    ]},
    {"smiles": "O=C(c1ccc(N2N=C(c3ccccc3)CC2c2ccccc2)cc1)N1CCOCC1", "note": "(centres undefined)", "values": [
      {"measurement": "EC50", "value": "> 20 µM (inactive)"}
    ]},
    {"smiles": "CSc1ccc(C2=NN(c3ccc(C(=O)N4CCOCC4)cc3)C(c3ccccc3)C2)cc1", "note": "(centres undefined)", "values": [
      {"measurement": "EC50", "value": "> 20 µM (inactive)"}
    ]},
    {"smiles": "COc1ccc(N2N=C(c3ccccn3)CC2c2ccccc2)cc1", "note": "(centres undefined)", "values": [
      {"measurement": "EC50", "value": "> 20 µM (inactive)"}
    ]},
    {"smiles": "CC(C)CNC(=O)c1ccc(N2N=C(c3ccccc3)CC2c2ccccc2)cc1", "note": "(centres undefined)", "values": [
      {"measurement": "EC50", "value": "> 20 µM (inactive)"}
    ]},
    {"smiles": "CS(=O)(=O)c1ccc(N2N=C(c3ccccc3)CC2c2ccccc2)cc1", "note": "(centres undefined)", "values": [
      {"measurement": "EC50", "value": "> 20 µM (inactive)"}
    ]},
    {"smiles": "c1ccc(C2CC(c3cccnc3)=NN2c2ccccc2)cc1", "note": "(centres undefined)", "values": [
      {"measurement": "EC50", "value": "> 20 µM (inactive)"}
    ]},
    {"smiles": "CNC(=O)c1ccc(N2N=C(c3ccccc3)CC2c2ccccc2)cc1", "note": "(centres undefined)", "values": [
      {"measurement": "EC50", "value": "> 20 µM (inactive)"}
    ]},
    {"smiles": "c1ccc(C2=NN(c3ccccc3)C(c3ccccc3)C2)cc1", "note": "(centres undefined)", "values": [
      {"measurement": "EC50", "value": "> 20 µM (inactive)"}
    ]},
    {"smiles": "COc1ccc(N2N=C(c3ccccc3)CC2c2ccccc2)cc1", "note": "(centres undefined)", "values": [
      {"measurement": "EC50", "value": "> 20 µM (inactive)"}
    ]},
    {"smiles": "NS(=O)(=O)c1ccc(N2N=C(c3ccccc3)CC2c2ccccc2)cc1", "note": "(centres undefined)", "values": [
      {"measurement": "EC50", "value": "> 20 µM (inactive)"}
    ]},
    {"smiles": "CC(C)NC(=O)c1ccc(N2N=C(c3ccccc3)CC2c2ccccc2)cc1", "note": "(centres undefined)", "values": [
      {"measurement": "EC50", "value": "> 20 µM (inactive)"}
    ]},
    {"smiles": "O=[N+]([O-])c1ccc(N2N=C(c3ccccc3)CC2c2ccccc2)cc1", "note": "(centres undefined)", "values": [
      {"measurement": "EC50", "value": 0.2, "unit": "µM"}
    ]}
  ]
}
